# Assay results published in patent US12466832B2, “Monohydrate and crystalline forms of 6-[(3S,4S)-4-methyl-1-(pyrimidin-2-ylmethyl)pyrrolidin-3-yl]-3-tetrahydropyran-4-yl-7H-imidazo[1,5-a]pyrazin-8-one” (Cardurion Pharmaceuticals, Inc., priority 2018, dated 2025).
# How the values were obtained:
# Format in all cases: physicochemical
# [1] = Gravimetric Vapour Sorption (GVS); settings: 25° C., 0-90% RH
# Method: Sorption isotherms were obtained using a SMS DVS Intrinsic moisture sorption analyzer, controlled by DVS Intrinsic Control software. The sample temperature was maintained at 25° C. by the instrument controls. The humidity was controlled by mixing streams of dry and wet nitrogen, with a total flow rate of 200 ml/min. The relative humidity was measured by a calibrated Rotronic probe (dynamic range of 1.0-100% RH), located near the sample. The weight change, (mass relaxation) of the sample as a function of % RH was constantly monitored by a microbalance (accuracy ±0.005 mg).
# Typically, 5-30 mg of sample was placed in a tared mesh stainless steel basket under ambient conditions. The sample was loaded and unloaded at 40% RH and 25° C. (typical room conditions). A moisture sorption isotherm was performed as outlined below (2 scans per complete cycle). The standard isotherm was performed at 25° C. at 10% RH intervals over a 0-90% RH range. Typically, a double cycle (4 scans) was carried out. Data analysis was carried out within Microsoft Excel using the DVS Analysis Suite.
# The sample was recovered after completion of the isotherm and re-analyzed by XRPD.
# [2] = Water activity experiments (slurries, XRPD)
# Method: MH1 (30.0 mg) was weighed into HPLC vials and placed in a vacuum oven to dry over the weekend. All samples were then placed in a desiccator prior to use to ensure dryness. Solvent ([…]) was added and slurries agitated at either 25° C. or 5° C. Further MH1 was added to any solutions formed to return to a slurry. Ethyl acetate and methyl acetate were both dried prior to use. After four days, the samples were analysed by XRPD with minimum exposure to ambient conditions.
# Selected samples were also characterised after standing at ambient for 2 days by XRPD, 1H NMR, TGA and DSC.
# [3] = Drying investigation of the two hydrates (vacuum oven, XRPD and TGA)
# Method: Procedure: MH1 and MH2 were placed in a vacuum oven at 50° C. and RT for 24 h. The samples were then analysed by TGA and XRPD immediately after removal and after 4 hours standing under ambient conditions.
# [4] = Stability studies with competitive slurries of the two hydrates; settings: ambient conditions
# Method: Procedure: Saturated solutions of the supplied MH 1 (J08343) were prepared in different solvents/systems (1 ml). The saturated solutions were then filtered and used for competitive slurry experiments.
# MH1 and MH2 (ca. 15 mg each) were physically mixed before they were treated with the filtered saturated solutions (300 μL). The samples were stirred at 25° C. for 24 h then filtered, air dried and analysed by XRPD.
# The same solvents were used as for samples in water activity experiments with additional IPA/heptane mixtures as this is the current crystallisation solvent. This procedure was also followed for IPA/heptane at 5 and 50° C. (3 days slurrying).
# Further experiments were designed to increase the diversity of solvents/systems studied while still investigating the effect of water activity on the form obtained. This was with a view to define a solvent list for Phase 3 (Solvent Selection). Further saturated solutions were prepared as described in the procedure section using MH1 as supplied.
# XRPD under vacuum = assay: XRPD under vacuum
# Method: For vacuum experiments the samples were prepared and analysed in an Anton Paar chromed sample holder. The measurement parameters are as per the standard screening data collection method (detailed above), at 25° C. with no vacuum (I2). A vacuum of around 50 mbar was then applied and the sample measured every 5 min until the anhydrate pattern was obtained for three consecutive measurements (to ensure complete dehydration, up to sample I8). The vacuum was then released and the sample analysed every 5 min for 6 measurements (until sample I22). The sample was then reanalyzed by XRPD after 1 h to check for complete rehydration.
# MH1 was analysed at 25° C. with no vacuum. A vacuum of around 50 mbar was then applied and the sample measured every 5 min until the anhydrate pattern was obtained for three consecutive measurements (to ensure complete dehydration). The vacuum was then released and the sample analysed every 5 min for 6 measurements before the front of the sample stage was removed.
# Procedure: A second batch of MH2 material was prepared using the same procedure. This sample was then analysed by VTXRPD and by XRPD under vacuum.
# Compression studies = assay: Compression studies
# [5] = 0.5% water/EtOAc, Aw = 0.3, four days
# [6] = 0.8% water/MeOAc, Aw = 0.4, four days
# [7] = 1% water/EtOAc, Aw = 0.5, four days
# [8] = 1.5% water/EtOAc, Aw = 0.6, four days
# [9] = 2% water/EtOAc, Aw = 0.7, four days
# [10] = 2.7% water/EtOAc, Aw = 0.8, four days
# [11] = 7.5% water/MeOAc, Aw = 0.9, four days
# [12] = EtOAc, Sieves, slurry four days
structure (smiles),measurement,setting,value
"C[C@@H]1CN(Cc2ncccn2)C[C@H]1c1cn2c(C3CCOCC3)ncc2c(=O)[nH]1 [MH1, 6-[(3S,4S)-4-methyl-1-(pyrimidin-2-ylmethyl)pyrrolidin-3-yl]-3-tetrahydropyran-4-yl-7H-imidazo[1,5-a]pyrazin-8-one]",GVS Max uptake,[1],"Max uptake of 4.7%, no hysteresis, large step"
same,Results for 5° C. (form by XRPD),[2]; [5],MH1
same,Results for 25° C. (form by XRPD),[2]; [5],MH1
same,Results for 5° C. (form by XRPD),[2]; [6],MH1
same,Results for 25° C. (form by XRPD),[2]; [6],MH1
same,Results for 5° C. (form by XRPD),[2]; [7],New Form
same,Results for 25° C. (form by XRPD),[2]; [7],MH1
same,Results for 5° C. (form by XRPD),[2]; [8],New Form
same,Results for 25° C. (form by XRPD),[2]; [8],MH1
same,Results for 5° C. (form by XRPD),[2]; [9],New Form
same,Results for 25° C. (form by XRPD),[2]; [9],New Form
same,Results for 5° C. (form by XRPD),[2]; [10],New Form
same,Results for 25° C. (form by XRPD),[2]; [10],New Form
same,Results for 5° C. (form by XRPD),[2]; [11],New Form
same,Results for 25° C. (form by XRPD),[2]; [11],New Form
same,Results for 5° C. (form by XRPD),[2]; [12],MH1
same,Results for 25° C. (form by XRPD),[2]; [12],MH1
same,"XRPD (T = 0, 50° C.)","[3]; vacuum oven 50° C. 24 h, immediately after removal",Matches MH1 and AH
same,"TGA (T = 0, 50° C.)","[3]; vacuum oven 50° C. 24 h, immediately after removal, lost between 25 and 100° C.",0.3% w/w lost between
same,"TGA (T = 4 h, 50° C.)","[3]; vacuum oven 50° C. 24 h, then 4 hours ambient, lost between 25 and 100° C.",2.7% w/w lost between
same,"XRPD (T = 4 h, 50° C.)","[3]; vacuum oven 50° C. 24 h, then 4 hours at ambient conditions",Matches MH1
same,"XRPD (T = 0, RT)","[3]; vacuum oven RT 24 h, immediately after removal",Matches MH1 and AH
same,"TGA (T = 0, RT)","[3]; vacuum oven RT 24 h, immediately after removal, lost between 25 and 100° C.",0.3% w/w lost between
same,"TGA (T = 4 h, RT)","[3]; vacuum oven RT 24 h, then 4 hours ambient, lost between 25 and 100° C.",1.8% w/w lost between
same,"XRPD (T = 4 h, RT)","[3]; vacuum oven RT 24 h, then 4 hours at ambient conditions",Matches MH1
same,Relative stability of the forms,[4],most stable form at ambient conditions
same,TGA post vacuum XRPD mass loss,XRPD under vacuum,3.4%
same,Time to fully hydrated by XRPD after ambient air admitted,XRPD under vacuum; after vacuum released and front of sample stage taken off,15 min
same,Time under vacuum to conversion to the anhydrate by XRPD,"XRPD under vacuum; vacuum of around 50 mbar, 25° C.",10 min
same,"Compression studies, form by XRPD",Compression studies,no conversion to the anhydrate
